Test results: the supplement of paper PMC4649846

Experiments:
MDA-MB-231 [1] = details: incubation time: 72 h
Procedure: (§1)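 MDA-MB-231 breast cancer cells were transfected with siBRCA1 or non-targeting siControl, then seeded 24 h later at 4000 cells/well in 384-well plates holding 198 drugs at 5 concentrations. Viability was read by CellTiter-Blue after 72 h at 37 °C. Dose-response curves were fitted in Dotmatics to give IC50 and a drug sensitivity score (DSS: area under the curve relative to the area between the 10% threshold and 100% inhibition, normalised by the log of the top response). The dose range is not stated. IC50 values of 8333.3 or 4166.7 nM mark no response (top dose), and 0.8333 nM is the lower limit.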

MDA-MB-231 [2] = assay: drug sensitivity score (DSS); higher = more sensitive; extreme values may be limits of the assay; details: incubation time: 72 h
Procedure: as §1

[3] = siRNA: siControl (non-targeting)

Row | Structure (SMILES) | IC50 of cell viability (MDA-MB-231 [1]; siRNA: siBRCA1) | IC50 of cell viability (MDA-MB-231 [1]; [3]) | drug sensitivity score (MDA-MB-231 [2]; siRNA: siBRCA1) | drug sensitivity score (MDA-MB-231 [2]; [3])
1 | O=C(/C=C/c1cccc(S(=O)(=O)Nc2ccccc2)c1)NO [Belinostat] | 757 nM | 668 nM | 12.2 | 12.9
2 | C=C(c1ccc(C(=O)O)cc1)c1cc2c(cc1C)C(C)(C)CCC2(C)C [Bexarotene] | > 4170 nM | > 4170 nM | 0 | 0
3 | CCNC(=O)CCC/C=C\C[C@@H]1[C@@H](/C=C/[C@@H](O)CCc2ccccc2)[C@H](O)C[C@@H]1O [Bimatoprost] | > 4170 nM | > 4170 nM | 0 | 0
4 | Cc1c(N)nc([C@H](CC(N)=O)NC[C@H](N)C(N)=O)nc1C(=O)N[C@H](C(=O)N[C@H](C)[C@@H](O)[C@H](C)C(=O)N[C@H](C(=O)NCCc1nc(-c2nc(C(=O)NCCC[S+](C)C)cs2)cs1)[C@@H](C)O)[C@@H](OC1OC(CO)C(O)C(O)C1OC1OC(CO)C(O)C(OC(N)=O)C1O)c1cnc[nH]1 (stereo partly drawn) [Bleomycin] | > 4170 nM | 125 nM | 0 | 3.28
5 | CC(C)C[C@H](NC(=O)[C@H](Cc1ccccc1)NC(=O)c1cnccn1)B(O)O [Bortezomib] | 6.91 nM | 18.6 nM | 37.9 | 32.2
6 | CCC/C=C/C=C/C(=O)O[C@H]1/C(=C/C(=O)OC)C[C@H]2C[C@H]([C@@H](C)O)OC(=O)C[C@H](O)C[C@@H]3C[C@H](OC(C)=O)C(C)(C)[C@](O)(C[C@@H]4C/C(=C/C(=O)OC)C[C@H](/C=C/C(C)(C)[C@]1(O)O2)O4)O3 [Bryostatin 1] | 83.3 nM | 83.3 nM | 0 | 0
7 | CS(=O)(=O)OCCCCOS(C)(=O)=O [Busulfan] | > 4170 nM | > 4170 nM | 0 | 0
8 | CC[C@H](Nc1ncnc2[nH]cnc12)c1nc2cccc(F)c2c(=O)n1-c1ccccc1 [CAL-101] | > 4170 nM | 1090 nM | 0 | 2.02
9 | CC(=O)Nc1ccc(C(=O)Nc2ccccc2N)cc1 [CI-994] | > 4170 nM | 865 nM | 0 | 2.63
10 | C#Cc1cccc(Nc2ncnc3cc(OC)c(OCCCCCCC(=O)NO)cc23)c1 [CUDC-101] | 433 nM | 321 nM | 14.7 | 16.4
11 | CC[C@@]1(O)C(=O)OCc2c1cc1n(c2=O)Cc2cc3ccccc3nc2-1 [Camptothecin] | 45.6 nM | 328 nM | 16.9 | 10.9
12 | C=CC(=O)Nc1cc2c(Nc3ccc(F)c(Cl)c3)ncnc2cc1OCCCN1CCOCC1 [Canertinib] | 2510 nM | 1690 nM | 5.78 | 7.67
13 | CCCCCOC(=O)Nc1nc(=O)n([C@@H]2O[C@H](C)[C@@H](O)[C@H]2O)cc1F [Capecitabine] | > 4170 nM | > 4170 nM | 0 | 0
14 | O=C(O)C1(C(=O)O)CCC1.[NH2-].[NH2-].[Pt+2] [Carboplatin] | > 4170 nM | > 4170 nM | 0 | 0
15 | CC(C)C[C@H](NC(=O)[C@H](CCc1ccccc1)NC(=O)CN1CCOCC1)C(=O)N[C@@H](Cc1ccccc1)C(=O)N[C@@H](CC(C)C)C(=O)[C@@]1(C)CO1 [Carfilzomib] | 4.01 nM | 13.6 nM | 39.3 | 33.7
16 | O=NN(CCCl)C(=O)NCCCl [Carmustine] | > 4170 nM | > 4170 nM | 0 | 0

Row | Structure (SMILES) | IC50 of cell viability (MDA-MB-231 [1]; siRNA: siBRCA1) | IC50 of cell viability (MDA-MB-231 [1]; [3]) | drug sensitivity score (MDA-MB-231 [2]; siRNA: siBRCA1) | drug sensitivity score (MDA-MB-231 [2]; [3])
17 | COc1cc2c(Oc3ccc4[nH]c(C)cc4c3F)ncnc2cc1OCCCN1CCCC1 [Cediranib] | > 4170 nM | > 4170 nM | 0.0221 | 0
18 | Cc1ccc(-c2cc(C(F)(F)F)nn2-c2ccc(S(N)(=O)=O)cc2)cc1 [Celecoxib] | 1350 nM | > 4170 nM | 3.29 | 0
19 | O=C(O)CCCc1ccc(N(CCCl)CCCl)cc1 [Chlorambucil] | > 4170 nM | > 4170 nM | 0.465 | 0
20 | Nc1nc(Cl)nc2c1ncn2[C@H]1C[C@H](O)[C@@H](CO)O1 [Cladribine] | 2880 nM | 91.8 nM | 5.2 | 9.09
21 | Nc1nc(Cl)nc2c1ncn2[C@@H]1O[C@H](CO)[C@@H](O)[C@@H]1F [Clofarabine] | 82.1 nM | 28.1 nM | 8.22 | 12.5
22 | C[C@@H](Oc1cc(-c2cnn(C3CCNCC3)c2)cnc1N)c1c(Cl)ccc(F)c1Cl [Crizotinib] | > 4170 nM | 4070 nM | 0.595 | 4.02
23 | O=P1(N(CCCl)CCCl)NCCCO1 (stereo not drawn) [Cyclophosphamide] | > 4170 nM | > 4170 nM | 0.0343 | 0
24 | Nc1ccn([C@@H]2O[C@H](CO)[C@@H](O)[C@@H]2O)c(=O)n1 [Cytarabine] | 591 nM | 294 nM | 5.84 | 6.18
25 | CN(C)/N=N/c1[nH]cnc1C(N)=O [Dacarbazine] | 1330 nM | 96.4 nM | 2.68 | 7.63
26 | Cc1c2oc3c(C)ccc(C(=O)N[C@@H]4C(=O)N[C@H](C(C)C)C(=O)N5CCC[C@H]5C(=O)N(C)CC(=O)N(C)[C@@H](C(C)C)C(=O)O[C@@H]4C)c3nc-2c(C(=O)N[C@@H]2C(=O)N[C@H](C(C)C)C(=O)N3CCC[C@H]3C(=O)N(C)CC(=O)N(C)[C@@H](C(C)C)C(=O)O[C@@H]2C)c(N)c1=O [Dactinomycin] | 4.19 nM | 2.18 nM | 36.8 | 38.3
27 | CO[C@@H](C(=O)N1Cc2[nH]nc(NC(=O)c3ccc(N4CCN(C)CC4)cc3)c2C1)c1ccccc1 [Danusertib] | 1910 nM | 1160 nM | 6.5 | 10.1
28 | Cc1nc(Nc2ncc(C(=O)Nc3c(C)cccc3Cl)s2)cc(N2CCN(CCO)CC2)n1 [Dasatinib] | 11 nM | 11.3 nM | 27 | 27
29 | COc1cccc2c1C(=O)c1c(O)c3c(c(O)c1C2=O)C[C@@](O)(C(C)=O)C[C@@H]3O[C@H]1C[C@H](N)[C@H](O)[C@H](C)O1 [Daunorubicin] | 159 nM | 52.2 nM | 19.8 | 24.9
30 | Nc1ncn([C@H]2C[C@H](O)[C@@H](CO)O2)c(=O)n1 [Decitabine] | > 4170 nM | > 4170 nM |  | 0
31 | C[C@@H]1C[C@H]2[C@@H]3CCC4=CC(=O)C=C[C@]4(C)[C@@]3(F)[C@@H](O)C[C@]2(C)[C@@]1(O)C(=O)CO [Dexamethasone] | > 4170 nM | > 4170 nM | 0 | 0
